Test results as given in the NIST ThermoML archive (doi:10.1021/acs.jced.5b00256).
Numbers after ± are expanded uncertainties.

Tests used:
[1] = refractive index (Na D-line) (dimensionless); xn = mol fraction of the nth substance listed; settings: 100 kPa, Liquid, Standard Abbe refractometry
[2] = relative permittivity at various frequencies (dimensionless); xn = mol fraction of the nth substance listed; settings: 100 kPa, Liquid, Frequency=2 MHz, Parallel plate capacitor

COc1cccc(Br)c1 [1-bromo-3-methoxybenzene] + CCCO
Settings	refractive index, 303.15 K	refractive index, 313.15 K	refractive index, 323.15 K	refractive index, 333.15 K	relative permittivity, 303.15 K	relative permittivity, 313.15 K	relative permittivity, 323.15 K	relative permittivity, 333.15 K
[1], x2 = 0	1.56 ± 0.002	1.558 ± 0.002	1.553 ± 0.002	1.55 ± 0.002	–	–	–	–
[1], x2 = 0.107	1.555 ± 0.002	1.552 ± 0.002	1.548 ± 0.002	1.546 ± 0.002	–	–	–	–
[1], x2 = 0.206	1.544 ± 0.002	1.54 ± 0.002	1.535 ± 0.002	1.532 ± 0.002	–	–	–	–
[1], x2 = 0.296	1.53 ± 0.002	1.528 ± 0.002	1.523 ± 0.002	1.519 ± 0.002	–	–	–	–
[1], x2 = 0.38	1.517 ± 0.002	1.515 ± 0.002	1.512 ± 0.002	1.508 ± 0.002	–	–	–	–
[1], x2 = 0.457	1.504 ± 0.002	1.501 ± 0.002	1.5 ± 0.002	1.497 ± 0.002	–	–	–	–
[1], x2 = 0.529	1.493 ± 0.002	1.489 ± 0.002	1.488 ± 0.002	1.484 ± 0.002	–	–	–	–
[1], x2 = 0.596	1.484 ± 0.002	1.482 ± 0.002	1.477 ± 0.002	1.474 ± 0.002	–	–	–	–
[1], x2 = 0.658	1.473 ± 0.002	1.468 ± 0.002	1.464 ± 0.002	1.461 ± 0.002	–	–	–	–
[1], x2 = 0.716	1.461 ± 0.002	1.458 ± 0.002	1.449 ± 0.002	1.447 ± 0.002	–	–	–	–
[1], x2 = 0.771	1.447 ± 0.002	1.444 ± 0.002	1.437 ± 0.002	1.435 ± 0.002	–	–	–	–
[1], x2 = 0.822	1.435 ± 0.002	1.429 ± 0.002	1.425 ± 0.002	1.423 ± 0.002	–	–	–	–
[1], x2 = 0.871	1.421 ± 0.002	1.418 ± 0.002	1.413 ± 0.002	1.41 ± 0.002	–	–	–	–
[1], x2 = 0.916	1.41 ± 0.002	1.405 ± 0.002	1.401 ± 0.002	1.398 ± 0.002	–	–	–	–
[1], x2 = 0.959	1.396 ± 0.002	1.392 ± 0.002	1.388 ± 0.002	1.385 ± 0.002	–	–	–	–
[2], x2 = 0	–	–	–	–	7.01 ± 0.6	6.85 ± 0.6	6.74 ± 0.6	6.6 ± 0.6
[2], x2 = 0.107	–	–	–	–	7.18 ± 0.6	7.03 ± 0.6	6.89 ± 0.6	6.7 ± 0.6
[2], x2 = 0.206	–	–	–	–	7.55 ± 0.6	7.39 ± 0.6	7.15 ± 0.6	6.95 ± 0.6
[2], x2 = 0.296	–	–	–	–	8.05 ± 0.6	7.83 ± 0.6	7.55 ± 0.6	7.23 ± 0.6
[2], x2 = 0.38	–	–	–	–	8.67 ± 0.6	8.39 ± 0.6	8.08 ± 0.6	7.65 ± 0.6
[2], x2 = 0.457	–	–	–	–	9.46 ± 0.6	9.11 ± 0.6	8.68 ± 0.6	8.2 ± 0.6
[2], x2 = 0.529	–	–	–	–	10.27 ± 0.6	9.87 ± 0.6	9.4 ± 0.6	8.74 ± 0.6
[2], x2 = 0.596	–	–	–	–	11.08 ± 0.6	10.61 ± 0.6	10.11 ± 0.6	9.38 ± 0.6
[2], x2 = 0.658	–	–	–	–	12.04 ± 0.6	11.56 ± 0.6	10.94 ± 0.6	10.15 ± 0.6
[2], x2 = 0.716	–	–	–	–	12.93 ± 0.6	12.39 ± 0.6	11.71 ± 0.6	10.89 ± 0.6
[2], x2 = 0.771	–	–	–	–	13.98 ± 0.6	13.42 ± 0.6	12.88 ± 0.6	11.8 ± 0.6
[2], x2 = 0.822	–	–	–	–	15.14 ± 0.6	14.52 ± 0.6	13.63 ± 0.6	12.43 ± 0.6
[2], x2 = 0.871	–	–	–	–	16.23 ± 0.6	15.6 ± 0.6	14.65 ± 0.6	13.33 ± 0.6
[2], x2 = 0.916	–	–	–	–	17.33 ± 0.6	16.62 ± 0.6	15.64 ± 0.6	14.3 ± 0.6
[2], x2 = 0.959	–	–	–	–	18.58 ± 0.6	17.66 ± 0.6	16.7 ± 0.6	15.22 ± 0.6
